Results as given in US8163909B2, “Substituted hydroxyethyl amine compounds as beta-secretase modulators and methods of use” (Amgen Inc., priority 2007, dated 2012).
Like-named read-outs stand apart in the source and are kept apart here.

Tests used:
[1] = biological target: Beta Secretase enzyme (BACE) (Homo sapiens, UniProt P56817); test: In vitro enzymatic BACE FRET (fluorescence resonance energy transfer) assay; format: biochemical;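 also: fluorescence read after 1 h with 50 nM quenched peptide substrate spanning the BACE cleavage site, in pH 4.2 acetate buffer containing 10% DMSO and nonionic detergent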
Sequence of Beta Secretase enzyme (BACE) (P56817 46-501): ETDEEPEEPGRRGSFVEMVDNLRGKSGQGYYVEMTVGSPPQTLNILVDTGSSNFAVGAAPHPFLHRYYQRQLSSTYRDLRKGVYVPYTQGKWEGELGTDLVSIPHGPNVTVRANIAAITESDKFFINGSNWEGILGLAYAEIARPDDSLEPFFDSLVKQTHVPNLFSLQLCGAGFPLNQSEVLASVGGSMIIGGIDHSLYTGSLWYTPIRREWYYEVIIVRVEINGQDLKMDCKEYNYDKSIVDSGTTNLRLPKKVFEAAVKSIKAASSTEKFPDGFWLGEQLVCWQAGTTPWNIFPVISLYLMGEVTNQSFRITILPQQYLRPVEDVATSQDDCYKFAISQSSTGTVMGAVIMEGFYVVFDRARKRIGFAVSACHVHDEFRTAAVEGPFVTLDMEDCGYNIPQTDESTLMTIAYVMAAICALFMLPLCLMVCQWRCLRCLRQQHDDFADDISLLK

[2] = tested on: Aβ40 in conditioned medium of cells stably expressing Amyloid Precursor Protein (APP); test: In vitro BACE cell-based assay (Aβ40 in conditioned medium, sandwich ELISA); details: Homo sapiens;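 also: compounds added as a dilution series, secreted peptide quantified by europium time-resolved fluorescence readout, potency fitted from percent of control versus compound concentration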
[3] = Microsomal stability assay, rat liver microsomes;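 also: rat liver microsomes (0.25 mg/mL) with about 1 µM compound plus 1 mM NADPH, pH 7.4, 37 °C for 30 min, parent left measured by LC-MS/MS against 0 min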
[4] = Microsomal stability assay, human liver microsomes;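 also: pooled human liver microsomes at 0.25 mg/mL with 1 µM compound and NADPH at 37 °C, pH 7.4, for 30 min, unchanged parent quantified by LC-MS/MS against the 0 min sample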
CYP2D6 = CYP2D6 (Homo sapiens, UniProt P10635); test: CYP2D6 inhibition assay (bufuralol, pooled human liver microsomes)
Sequence of CYP2D6 (P10635 whole entry): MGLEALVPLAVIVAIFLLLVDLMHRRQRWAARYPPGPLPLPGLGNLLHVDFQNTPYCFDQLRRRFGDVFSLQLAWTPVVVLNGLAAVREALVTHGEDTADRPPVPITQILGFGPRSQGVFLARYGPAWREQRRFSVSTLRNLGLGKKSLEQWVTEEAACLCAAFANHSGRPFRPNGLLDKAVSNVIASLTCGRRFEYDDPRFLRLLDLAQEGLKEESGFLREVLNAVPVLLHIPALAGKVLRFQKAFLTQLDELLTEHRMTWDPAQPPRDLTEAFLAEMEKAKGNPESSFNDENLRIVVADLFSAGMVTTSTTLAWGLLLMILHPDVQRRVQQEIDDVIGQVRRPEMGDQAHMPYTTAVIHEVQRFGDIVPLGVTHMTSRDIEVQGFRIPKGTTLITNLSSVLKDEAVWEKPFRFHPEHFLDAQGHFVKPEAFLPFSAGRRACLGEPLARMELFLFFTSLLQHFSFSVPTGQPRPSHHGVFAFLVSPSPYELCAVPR

[5] = read-out: BACE1 FRET assay (IC50)
[6] = HEK293, HEK cells, read-out: HEK cell assay (IC50)
[7] = BACE enzyme assay, IC50's in uM, read-out: BACE1 FRET assay
[8] = HEK293, cell-based assay, HEK cells, IC50's in uM, read-out: HEK cell assay
[9] = 2D6 IC50, CYP enzyme inhibition
[10] = 2D6 IC50 (uM), CYP enzyme inhibition
[11] = BACE enzyme assay, read-out: BACE1 FRET assay
[12] = HEK293, HEK cells, read-out: HEK cell assay
[13] = HEK293, HEK cells, cell-based assay, read-out: HEK cell assay (IC50)

| IC50 [1, 5] [µM] | IC50 [2, 6] [µM] | RLM ([3]; rat liver microsomes) [µL/min/mg] | HLM ([4]; human liver microsomes) [µL/min/mg] | IC50 (CYP2D6; 2D6 IC50, CYP2D6 inhibition) [µM] | RLM ([3]; rat liver microsomal data) [µL/min/mg] | HLM ([4]; human liver microsomal data) [µL/min/mg] | Compound | also measured |
| --- | --- | --- | --- | --- | --- | --- | --- | --- |
| – | – | – | – | – | 55 | – | C#Cc1cccc(C[C@H](NC(=O)[C@@H]2CCCO2)[C@H](O)CN[C@H]2CC3(CCC3)Oc3ncc(CC(C)(C)C)cc32)c1 [compound 897] | IC50 [1, 7]: 0.005 µM; IC50 [2, 8]: 0.007 µM; IC50 (CYP2D6; [9]): 3.6 µM |
| 0.018 | 0.013 | 215 | 89 | 2.7 | – | – | CO[C@H](C)C(=O)N[C@@H](Cc1ccccc1)[C@H](O)CN[C@H]1CC2(CCC2)Oc2c(-c3ccncc3)cc(CC(C)C)cc21 [compound 604] | – |
| – | – | – | – | – | 86 | 47 | COCC(=O)N[C@@H](Cc1cccc(F)c1)[C@H](O)CN[C@H]1CC2(CCC2)Oc2c1cc(Cl)cc2-n1ccnc1 [compound 553] | IC50 [1, 11]: 0.146 µM |
| 0.065 | 0.015 | 166 | 57 | 3.1 | – | – | CO[C@H](C)C(=O)N[C@@H](Cc1cncs1)[C@H](O)CN[C@H]1CC2(CCC2)Oc2c(-c3ccncc3)cc(CC(C)(C)C)cc21 [compound 632] | – |
| 0.01 | 0.007 | 72 | 65 | 1.7 | – | – | COCC(=O)N[C@@H](Cc1cccc(F)c1)[C@H](O)CN[C@H]1CC2(CCC2)Oc2c(-c3ccncc3)cc(CC(C)C)cc21 [compound 607] | – |
| 0.012 | 0.006 | 85 | 35 | 1.5 | – | – | COCC(=O)N[C@@H](Cc1cccc(C#N)c1)[C@H](O)CN[C@H]1CC2(CCC2)Oc2c(-c3ccncc3)cc(CC(C)C)cc21 [compound 619] | – |
| – | – | – | – | – | 163 | 29 | CO[C@H](C)C(=O)N[C@@H](Cc1cccc(F)c1)[C@H](O)CN[C@H]1CC2(CCC2)Oc2c1cc(CC(C)(C)C)nc2-c1ccncc1 [compound 533] | IC50 [1, 11]: 0.013 µM; IC50 [2, 12]: 0.044 µM; IC50 (CYP2D6; [10]): 1.4 µM |
| 0.158 | 0.077 | 61 | 44 | 0.3 | – | – | CC(=O)N[C@@H](Cc1cccc(F)c1)[C@H](O)CN[C@H]1CC2(CCC2)Oc2c1cc(Cl)cc2-n1ccnc1 [compound 594] | – |
| 0.01 | 0.004 | 73 | 14 | 1.7 | – | – | CC(=O)N[C@@H](Cc1cccc(F)c1)[C@H](O)CN[C@H]1CC2(CCC2)Oc2c(-c3ccncc3)cc(CC(C)(C)C)cc21 [compound 592] | – |
| – | – | – | – | – | 60 | 35 | C#Cc1cccc(C[C@H](NC(=O)[C@@H](C)OC)[C@H](O)CN[C@H]2CC3(CCC3)Oc3ncc(CC(C)(C)C)cc32)c1F [compound 912] | IC50 [1, 7]: 0.013 µM; IC50 [2, 8]: 1.19 µM; IC50 (CYP2D6; [9]): 6.3 µM |
| – | – | – | – | – | 136 | 37 | CCO[C@H](C)C(=O)N[C@@H](Cc1ccc2c(c1)OCO2)[C@H](O)CN[C@H]1CC2(CCC2)Oc2ncc(CC(C)(C)C)cc21 [compound 887] | IC50 [1, 7]: 0.102 µM; IC50 [2, 8]: 0.052 µM |
| – | – | – | – | – | 103 | 40 | CC(C)(C)Cc1cnc2c(c1)[C@@H](NC[C@@H](O)[C@H](Cc1ccc3c(c1)OCO3)NC(=O)C(C)(C)C)CC1(CCC1)O2 [compound 882] | IC50 [1, 7]: 6.25 µM; IC50 [2, 8]: 2.58 µM; IC50 (CYP2D6; [9]): 0.5 µM |
| – | – | – | – | – | 232 | 190 | CO[C@@H](C)C(=O)N[C@@H](Cc1ccc2c(c1)OCO2)[C@H](O)CN[C@H]1CC2(CCC2)Oc2c1cc(CC(C)(C)C)nc2N(C)C [compound 443] | IC50 ([1]; Table 2, read-out: BACE1 FRET assay): 0.065 µM; IC50 ([2]; HEK293, Table 2, HEK cells, read-out: HEK cell assay): 0.175 µM |
| – | – | – | – | – | 278 | 382 | COCC(=O)N[C@@H](Cc1cccc(C(C)=O)c1)[C@H](O)CN[C@H]1CC2(CCC2)Oc2ncc(CC(C)(C)C)cc21 [compound 872] | IC50 [1, 7]: 0.007 µM; IC50 [2, 8]: 0.009 µM; IC50 (CYP2D6; [9]): 5.7 µM |
| – | – | – | – | – | 73 | 45 | C#Cc1cccc(C[C@H](NC(=O)[C@H]2CCCO2)[C@H](O)CN[C@H]2CC3(CCC3)Oc3ncc(CC(C)(C)C)cc32)c1 [compound 896] | IC50 [1, 7]: 0.006 µM; IC50 [2, 8]: 0.009 µM; IC50 (CYP2D6; [9]): 3.8 µM |
| 0.076 | 0.024 | 413 | 706 | 0.2 | – | – | CC(=O)N[C@@H](Cc1cccc(-n2ccnc2)c1)[C@H](O)CN[C@H]1CC2(CCC2)Oc2ccc(CC(C)(C)C)cc21 [compound 659] | – |
| – | – | – | – | – | 140 | 29 | CCO[C@@H](C)C(=O)N[C@@H](Cc1ccc2c(c1)OCO2)[C@H](O)CN[C@H]1CC2(CCC2)Oc2ncc(CC(C)(C)C)cc21 [compound 888] | IC50 [1, 7]: 0.213 µM; IC50 [2, 8]: 1.55 µM; IC50 (CYP2D6; [9]): 3.4 µM |

Further lines, the molecule ahead of its results:

| Compound | IC50 [1, 5] [µM] | IC50 [2, 6] [µM] | RLM ([3]; rat liver microsomes) [µL/min/mg] | HLM ([4]; human liver microsomes) [µL/min/mg] | IC50 (CYP2D6; 2D6 IC50, CYP2D6 inhibition) [µM] | RLM ([3]; rat liver microsomal data) [µL/min/mg] | HLM ([4]; human liver microsomal data) [µL/min/mg] | also measured |
| --- | --- | --- | --- | --- | --- | --- | --- | --- |
| COCC(=O)N[C@@H](Cc1ccc(F)cc1)[C@H](O)CN[C@H]1CC2(CCC2)Oc2c(-c3ccncc3)cc(CC(C)C)cc21 [compound 605] | 0.014 | 0.016 | 71 | 73 | 2.3 | – | – | – |
| CO[C@H](C)C(=O)N[C@@H](Cc1cc(F)cc(F)c1)[C@H](O)CN[C@H]1CC2(CCC2)Oc2c(-c3cncn3C)cc(CC(C)C)cc21 [compound 622] | 0.026 | 0.007 | 161 | 32 | 6.6 | – | – | – |
| C#Cc1cc(F)cc(C[C@H](NC(=O)[C@@H](C)OC)[C@H](O)CN[C@H]2CC3(CCC3)Oc3ncc(CC(C)(C)C)cc32)c1 [Example 834, (2R)-N-((1S,2R)-3-(((4′S)-6′-(2,2-dimethylpropyl)-3′,4′-dihydrospiro[cyclobutane-1,2′-pyrano[2,3-b]pyridin]-4′-yl)amino)-1-(3-ethynyl-5-fluorobenzyl)-2-hydroxypropyl)-2-methoxypropanamide] | – | – | – | – | – | 98 | 37 | IC50 [1, 7]: 0.005 µM; IC50 ([2]; HEK293, HEK cell-based assay, IC50's in uM, read-out: HEK cell assay): 0.011 µM; IC50 (CYP2D6; [10]): 2.5 µM |
| CO[C@H](C)C(=O)N[C@@H](Cc1cc(F)cc(F)c1)[C@H](O)CN[C@H]1CC2(CCC2)Oc2c(-c3ccncc3)cc(CC(C)C)cc21 [compound 587] | 0.012 | 0.006 | 73 | 29 | 2.1 | – | – | – |
| CO[C@H](C)C(=O)N[C@@H](Cc1ccc(F)cc1)[C@H](O)CN[C@H]1CC2(CCC2)Oc2c(-c3ccncc3)cc(CC(C)C)cc21 [compound 606] | 0.041 | 0.026 | 85 | 51 | 2 | – | – | – |
| COCC(=O)N[C@@H](Cc1cc(F)cc(F)c1)[C@H](O)CN[C@H]1CC2(CCC2)Oc2c1cc(CC(C)C)nc2-c1ccncc1 [compound 682] | – | – | 113 | 34 | – | – | – | IC50 ([1]; BACE enzyme assay IC50, read-out: BACE1 FRET assay): 0.009 µM; IC50 ([2]; HEK293, HEK cell-based assay IC50, read-out: HEK cell assay): 0.011 µM; IC50 (CYP2D6; 2D6 IC50 (uM), CYP2D6 inhibition): 1.1 µM |
| C#Cc1cc(C#C)cc(C[C@H](NC(=O)COC)[C@H](O)CN[C@H]2CC3(CCC3)Oc3ncc(CC(C)(C)C)cc32)c1 [compound 858] | – | – | – | – | – | 88 | 90 | IC50 [1, 7]: 0.005 µM; IC50 [2, 8]: 0.147 µM; IC50 (CYP2D6; [9]): 1.1 µM |
| COCC(=O)N[C@@H](Cc1cc(F)cc(F)c1)[C@H](O)CN[C@H]1CC2(CCC2)Oc2c(-c3nccn3C)cc(CC(C)C)cc21 [compound 630] | 0.021 | 0.003 | 220 | 37 | 4 | – | – | – |
| CO[C@H](C)C(=O)N[C@@H](Cc1cc(F)cc(F)c1)[C@H](O)CN[C@H]1CC2(CCC2)Oc2c1cc(CC(C)(C)C)nc2-c1ccncc1 [compound 583] | 0.015 | 0.03 | 80 | 14 | 1.2 | – | – | – |
| COCC(=O)N[C@@H](Cc1ccccc1)[C@H](O)CN[C@H]1CC2(CCC2)Oc2c(-c3cncn3C)cc(CC(C)C)cc21 [compound 635] | 0.074 | 0.01 | 420 | 44 | 4.1 | – | – | – |
| COCC(=O)N[C@@H](Cc1cc(F)cc(F)c1)[C@H](O)CN[C@H]1CC2(CCC2)Oc2c1cc(Cl)cc2-n1ccnc1 [compound 581] | 0.081 | 0.075 | 124 | 91 | – | – | – | – |
| COCC(=O)N[C@@H](Cc1ccc2c(c1)OCO2)[C@H](O)CN[C@H]1CC2(CCC2)Oc2ccc(C[C@@H](C)F)cc21 [compound 558] | – | – | – | – | – | 362 | 167 | IC50 [1, 11]: 0.25 µM; IC50 [2, 12]: 0.336 µM |
| CNc1nc(CC(C)(C)C)cc2c1OC1(CCC1)C[C@@H]2N(C)C[C@@H](O)[C@H](Cc1ccc(F)cc1)NC(=O)[C@@H](C)OC [compound 138] | – | – | – | – | – | – | – | IC50 ([1]; BACE enzyme assay, read-out: BACE1 FRET assay (IC50)): 0.178 µM; IC50 [2, 13]: 0.162 µM |
| CO[C@H](C)C(=O)N[C@@H](Cc1cccc(F)c1)[C@H](O)CN[C@H]1CC2(CCC2)Oc2c(F)cc(CC(C)(C)C)cc21 [compound 222] | – | – | – | – | – | – | – | IC50 ([1]; BACE enzyme FRET assay, read-out: BACE1 FRET assay (IC50)): 0.00445 µM; IC50 [2, 13]: 0.0127 µM |
